Reference: patent US9585871B2, “Method for treating and curing leishmaniosis using fexinidazole” (Merial Limited, priority 2013, dated 2017)
Where “and” joins values, the source holds several entries; their conditions need not be identical. Equal values may be shown once. Entries after “also recorded” stand apart in the source; their conditions may differ.

What was measured:
[1] = Toxicology summary: maximum dose after oral administration, mice; format: in vivo
Text: (§1) Toxicology summary. In mice and rats, the maximum fexinidazole (FEX) dose after oral administration is 10 g/kg of body weight. […] Finally, as regards PK, labeled FEX and its metabolites were excreted within 3 days in the feces (52-58%) and urine (36-40%).

[2] = Reproductive toxicity study, rats; format: in vivo; details: oral 200 mg/kg for 10 days
Text: as §1

[3] = Reproductive toxicity study, rabbits; format: in vivo; details: oral 40 mg/kg for 13 days
Text: as §1

[4] = tested on: chromosome damage; assay: Chromosome damage in vitro or in vivo
Text: as §1

[5] = Excretion and metabolites of labeled FEX; format: in vivo
Text: as §1

[6] = tested on: L. infantum; assay: Clinical study in dogs infected with L. infantum: Clinical Score; format: in vivo; set-up: key: additive score of clinical signs (body condition, lymphadenopathy, etc.); details: Glucantime 100 mg/kg dNMA SC or Fexinidazole 60 mg/kg PO once daily Days 0-27
Experimental: (§2) In a clinical study, dogs infected with L. infantum were treated with meglumine antimoniate (GLUCANTIME®, Merial) as a positive control, or FEX (Table 5). Eight blocks of two animals were formed based antibody titers and biological scores. Six dogs in each group were naturally infected by housing them in an endemic area for two years and two dogs in each group were artificially infected by intravenous administration of a known quantity of parasites recovered from the spleen of an infected dog.
(§3) The first group (FEX) was compared to the second group, which was treated with 27 mg/kg GLUCANTIME (meglumine antimoniate, or 100 mg/kg of dNMA) “GLU”), over 28 days.
(§4) Variables. The Clinical Score is an additive score of various clinical signs (body condition, lymphadenopathy, splenomegaly, appetite, behavior, mucous membrane color, dermatopathology, ocular signs, digestive signs, arthropathy) evaluated before treatment and on Days 7, 14, 21, 28, 57, 184, 219, 254, 282, 310, 345, 400 and 436. The Overall Biological Score is an additive score based on the severity of changes in hematology/chemistry values (creatinine, urine protein/creatinine, Hct, globulin, ALAT), evaluated pretreatment and on Days 28, 57, and 181. The L. infantum immunofluorescent antibody titers (IFAT) were determined from samples collected before treatment and on Days 28, 57, and 181. Finally, quantitative PCR (qPCR) for L. infantum was conducted on spleen aspirates collected before treatment and on Days 28, 57, 142, 184, and 373.

[7] = tested on: L. infantum; assay: Clinical study in dogs infected with L. infantum: Overall Biological Score; format: in vivo; set-up: key: additive score of severity of hematology/chemistry changes; details: Glucantime 100 mg/kg dNMA SC or Fexinidazole 60 mg/kg PO once daily Days 0-27
Experimental: as §2, §3, §4

[8] = tested on: L. infantum; assay: Clinical study in dogs infected with L. infantum: qPCR on spleen aspirates; format: in vivo; details: spleen aspirate, Glucantime 100 mg/kg dNMA SC or Fexinidazole 60 mg/kg PO once daily Days 0-27
Experimental: as §2, §3, §4

[9] = tested on: L. infantum; assay: Clinical study in dogs infected with L. infantum: overall outcome (cure, relapse, removal of animals); format: in vivo; details: canines, L. infantum
Experimental: as §2
The first group (FEX) was compared to the second group, which was treated with 27 mg/kg GLUCANTIME (meglumine antimoniate, or 100 mg/kg of dNMA) “GLU”), over 28 days. […]

[10] = labeled FEX and its metabolites, within 3 days

CSc1ccc(OCc2ncc([N+](=O)[O-])n2C)cc1 [Fexinidazole, fexinidazole]
maximum dose after oral administration [1]: 10 g/kg of body weight | embryotoxic effects [2]: no embryotoxic effects | embryotoxic effects [3]: no embryotoxic effects | chromosome damage [4]: does not induce chromosome damage | time to excretion of labeled FEX and its metabolites ([5]; feces and urine): ≤ 3 days | main metabolites ([5]; in vivo): the sulfoxide, the sulfone, and the corresponding phenolic fragments | excretion in the feces [5, 10]: 52-58% | excretion in the urine [5, 10]: 36-40% | Clinical Score, group average ([6]; Day 7): 2.8 | Clinical Score ([6]; Day 14, individual dogs): 2 (2×) and 0 (2×) and 3 (3×) | Clinical Score, group average ([6]; Day 14): 1.6 | Clinical Score ([6]; Day 21, individual dogs): 0 (5×) and 2 (2×) | Clinical Score, group average ([6]; Day 21): 0.5 | Clinical Score ([6]; Day 28, individual dogs): 0 (4×) and 1 (2×) and 2 | Clinical Score, group average ([6]; Day 28, Group 1 includes D21 data of Block 3 dog carried forward): 0.5 | Clinical Score ([6]; Day 57, individual dogs): 2 (3×) and 0 (4×) | Clinical Score, group average ([6]; Day 57, Group 1 includes D21 data of Block 3 dog carried forward): 0.8 | Clinical Score ([6]; Day 184, individual dogs): 0 | Clinical Score, group average ([6]; Day 184): 0.1 | Clinical Score ([6]; Day 219, individual dogs): 0 (6×) and 1 | Clinical Score, group average ([6]; Day 219): 0.1 | Clinical Score ([6]; Day 254, individual dogs): 0 (7×) and 4 | Clinical Score, group average ([6]; Day 254): 0.5 | Clinical Score ([6]; Day 282, individual dogs): 0 (7×) and 2 | Clinical Score, group average ([6]; Day 282): 0.3 | Clinical Score ([6]; Day 310, individual dogs): 0 (6×) and 2 | Clinical Score, group average ([6]; Day 310): 0.3 | Clinical Score ([6]; Day 345, individual dogs): 0 (6×) and 2 | Clinical Score, group average ([6]; Day 345): 0.3 | Clinical Score ([6]; Day 400, individual dogs): 0 (5×) and 1 and 2 | Clinical Score, group average ([6]; Day 400): 0.4 | Clinical Score, group average ([6]; Day 436): 0.4 | Clinical Score, group average ([6]; Day −7 (before treatment)): 2.4 | Overall Biological Score ([7]; Day 28, individual dogs): 3 (2×) and 2 (2×) and 1 (2×) and 0 (2×) | Overall Biological Score, group average ([7]; Day 28): 1.5 | Overall Biological Score ([7]; Day 57, individual dogs): 2 (3×) and 0 (3×) and 3 (2×) | Overall Biological Score, group average ([7]; Day 57, Group 1 includes D28 data of Block 3 dog carried forward): 1.5 | Overall Biological Score ([7]; Day 181, individual dogs): 0 (5×) and 1 (2×) and 3 | Overall Biological Score, group average ([7]; Day 181, Group 1 includes D28 data of Block 3 dog carried forward): 0.6 | Overall Biological Score ([7]; Day −14 (pretreatment), individual dogs): 4 and 7 and 5 (2×) and 2 and 3 and 1 and 0 | Overall Biological Score, group average ([7]; Day −14 (pretreatment)): 3.4 | qPCR for L. infantum ([8]; Day 28, individual dogs): BLOQ (BLOQ = Below Level of Quantification = < log 3.64 copies/mL spleen aspirate) | qPCR for L. infantum ([8]; Day 57, individual dogs): BLOQ (BLOQ = Below Level of Quantification = < log 3.64 copies/mL spleen aspirate) | qPCR for L. infantum ([8]; Day 142, individual dogs): BLOQ (BLOQ = Below Level of Quantification = < log 3.64 copies/mL spleen aspirate) | qPCR for L. infantum ([8]; Day 184, individual dogs): BLOQ (BLOQ = Below Level of Quantification = < log 3.64 copies/mL spleen aspirate) | qPCR for L. infantum ([8]; Day 373, individual dogs): BLOQ (BLOQ = Below Level of Quantification = < log 3.64 copies/mL spleen aspirate) (7×) and 3.82 log copies/mL | qPCR for L. infantum ([8]; Day −7 (before treatment), individual dogs): 7.19 log copies/mL and 7.11 log copies/mL and 5.21 log copies/mL and 5.57 log copies/mL and 6.58 log copies/mL and 5.81 log copies/mL and 6.01 log copies/mL and BLOQ (BLOQ = Below Level of Quantification = < log 3.64 copies/mL spleen aspirate) | relapse ([9]; 180 days after treatment initiation): No relapse was observed | cure of Leishmania infection ([9]; oral 60 mg/kg/day for 28 days, qPCR-confirmed, 60 mg/kg/day): can substantially or completely eliminate or cure L. infantum infection in canines; also recorded: sufficient to cure canines of leishmania parasites; also recorded: complete curing efficacy
